Consider 16 compounds from patent US7998978B2 (Pfizer Inc., priority 2006, dated 2011).

This experiment deals with T1, JNK1α1 (Homo sapiens, UniProt P45983).
T1 construct: catalytic domain containing amino acids 1-364 and N-terminal hexahistidine tag; hexahistidine (His6) (N); made in house; host or cells: E. coli BL21 (DE3)
Description: Coupled spectrophotometric (PK/LDH) JNK1α1 assay: % inhibition and Ki determination. It counts as biochemical. The note with it: JNK-1. In a few lines:
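Initial rates were taken from the absorbance decrease at 340 nm at 30° C. Ki was fitted with a tight-binding model over 11 concentrations (top 100 μM); single-point inhibition was tested at 1 or 10 μM.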

T1 sequence (P45983 1-364): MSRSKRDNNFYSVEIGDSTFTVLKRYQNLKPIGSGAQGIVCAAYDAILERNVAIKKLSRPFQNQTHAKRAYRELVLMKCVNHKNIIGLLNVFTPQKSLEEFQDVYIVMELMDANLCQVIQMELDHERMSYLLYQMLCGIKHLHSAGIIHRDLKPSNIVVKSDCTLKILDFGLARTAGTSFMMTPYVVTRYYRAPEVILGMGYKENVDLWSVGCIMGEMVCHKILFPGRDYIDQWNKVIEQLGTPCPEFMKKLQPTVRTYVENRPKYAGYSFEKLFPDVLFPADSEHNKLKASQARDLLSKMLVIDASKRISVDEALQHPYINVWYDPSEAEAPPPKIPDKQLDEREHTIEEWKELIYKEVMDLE

With `Cc1ccc2cnc(N[C@H]3CC[C@H](O)CC3)nc2c1OCC(=O)N1CCOCC1` [Example 213, trans-4-{[7-methyl-8-(2-morpholin-4-yl-2-oxoethoxy)quinazolin-2-yl]amino} cyclohexanol], the affinity corresponds to a Ki of 0.78 µM.

On to `Cc1ccc2cnc(N[C@H]3CC[C@H](O)CC3)nc2c1OCC(=O)N1CCS(=O)(=O)CC1` [Example 214, trans-4-({8-[2-(1,1-dioxidothiomorpholin-4-yl)-2-oxoethoxyl]-7-methylquinazolin-2-yl}amino) cyclohexanol], for which the affinity corresponds to a Ki of 1.3 µM.

On to `OC1(c2cncnc2)CCC(Nc2cc3cc(-c4cn[nH]c4)ccc3cn2)CC1` (stereo not shown) [Example 215, 4-{[6-(1H-pyrazol-4-yl)isoquinolin-3-yl]amino}-1-pyrimidin-5-ylcyclohexanol], for which the Ki (usually a measure of affinity in units of concentration, obtained from inhibition or displacement) was 0.25 µM.

With `c1cnc(N2CCC(Nc3cc4cc(-c5cn[nH]c5)ccc4cn3)CC2)nc1` [Example 216, 6-(1H-pyrazol-4-yl)-N-(1-pyrimidin-2-ylpiperidin-4-yl)isoquinolin-3-amine], the affinity, expressed as Ki, was 0.48 µM.

The compound `CC(=O)NC1CCC(Nc2cc3cc(-c4cn[nH]c4)ccc3cn2)CC1` (stereo not shown) [Example 217, N-(4-{[6-(1H-pyrazol-4-yl)isoquinolin-3-yl]amino}cyclohexyl)acetamide] gave a Ki of 0.775 µM.

With `c1cc2cnc(NC3CCOCC3)cc2cc1-c1cn[nH]c1` [Example 218, 6-(1H-pyrazol-4-yl)-N-(tetrahydro-2H-pyran-4-yl)isoquinolin-3-amine], the inhibition constant (Ki) was found to be 0.843 µM.

`COc1cc2c(cc1CNc1cc3cc(-c4cn[nH]c4)ccc3cn1)N(C)C(=O)CC2` [Example 219, 6-methoxy-1-methyl-7-({[6-(1H-pyrazol-4-yl)isoquinolin-3-yl]amino}methyl)-3,4-dihydroquinolin-2(1H)-one] registered a Ki of 1.16 µM.

`c1ccc2ncc(CNc3cc4cc(-c5cn[nH]c5)ccc4cn3)cc2c1` [Example 220, 6-(1H-pyrazol-4-yl)-N-(quinolin-3-ylmethyl)isoquinolin-3-amine] displayed a Ki of 1.93 µM.

Compound `c1cnc2ccc(CNc3cc4cc(-c5cn[nH]c5)ccc4cn3)cc2c1` [Example 221, 6-(1H-pyrazol-4-yl)-N-(quinolin-6-ylmethyl)isoquinolin-3-amine] returned a Ki of 2.22 µM.

The compound `c1ccc2nc(CNc3cc4cc(-c5cn[nH]c5)ccc4cn3)cnc2c1` [Example 222, 6-(1H-pyrazol-4-yl)-N-(quinoxalin-2-ylmethyl)isoquinolin-3-amine] showed a Ki of 2.95 µM.

As to `c1cc(CNc2cc3cc(-c4cn[nH]c4)ccc3cn2)cc(-c2cncnc2)c1` [Example 223, 6-(1H-pyrazol-4-yl)-N-(3-pyrimidin-5-ylbenzyl)isoquinolin-3-amine], the affinity corresponds to a Ki of 3.28 µM.

`c1cc(CNc2cc3cc(-c4cn[nH]c4)ccc3cn2)cc(-n2cccn2)c1` [Example 224, 6-(1H-pyrazol-4-yl)-N-[3-(1H-pyrazol-1-yl)benzyl]isoquinolin-3-amine] came in with an inhibitory constant (Ki) of 3.37 µM.

In turn, `c1ccc(-c2nc(CNc3cc4cc(-c5cn[nH]c5)ccc4cn3)c[nH]2)cc1` [Example 225, N-[(2-phenyl-1H-imidazol-4-yl)methyl]-6-(1H-pyrazol-4-yl)isoquinolin-3-amine] gave an inhibition constant Ki of 5.16 µM.

`N#Cc1cc(CNc2cc3cc(-c4cn[nH]c4)ccc3cn2)ccc1F` [Example 226, 2-fiuoro-5-({[6-(1H-pyrazol-4-yl)isoquinolin-3-yl]amino}methyl)benzonitrile] returned an inhibitory constant (Ki) of 5.27 µM.

`Cc1cc(CNc2cc3cc(-c4cn[nH]c4)ccc3cn2)ccn1` [Example 227, N-[(2-methylpyridin-4-yl)methyl]-6-(1H-pyrazol-4-yl)isoquinolin-3-amine] showed a Ki of 6.62 µM.

Turning to `CCN(CC)CCN1CCC(Nc2cc3cc(-c4cn[nH]c4)ccc3cn2)CCC1=O` (stereo not shown) [Example 228, 1-[2-(diethylamino)ethyl]-5-{[6-(1H-pyrazol-4-yl)isoquinolin-3-yl]amino}azepan-2-one], the Ki was found to be 11.5 µM.
